Measurements: the supplement of paper PMC10307832

Legend:
Assay in all cases: relative viability (nuclei count vs DMSO), 5 days (fraction); higher = more cells survive
AZD5582 + Bortezomib = compound: C[C@@H](C(=O)N[C@@H](C1CCCCC1)C(=O)N2CCC[C@H]2C(=O)N[C@@H]3[C@@H](CC4=CC=CC=C34)OCC#CC#CCO[C@@H]5CC6=CC=CC=C6[C@@H]5NC(=O)[C@@H]7CCCN7C(=O)[C@H](C8CCCCC8)NC(=O)[C@H](C)NC)NC [AZD5582] + CC(C)C[C@H](NC(=O)[C@H](Cc1ccccc1)NC(=O)c1cnccn1)B(O)O [Bortezomib] (partner 0.002 µM)
Outline: (§1)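 Each reported value is a median over duplicate plates. It expresses relative viability: treated-well nuclei count divided by vehicle-well nuclei count. Lung cancer cell lines in 1536-well plates were dosed by pin tool a day after seeding, alone with one drug or with a fixed anchor-drug dose plus five library-drug doses (not always all listed) in √10 steps, and nuclei were counted after 5 days.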

[1] = compound: Cn1nnc2c(C(N)=O)ncn2c1=O [Temozolomide] + CCNC(=O)c1noc(-c2cc(C(C)C)c(O)cc2O)c1-c1ccc(CN2CCOCC2)cc1 [Luminespib] (partner 0.01 µM)
Outline: as §1

Temozolomide + Dasatinib = compound: Cn1nnc2c(C(N)=O)ncn2c1=O [Temozolomide] + Cc1nc(Nc2ncc(C(=O)Nc3c(C)cccc3Cl)s2)cc(N2CCN(CCO)CC2)n1 [Dasatinib] (partner 0.075 µM)
Outline: as §1

AZD5582 + Decitabine = compound: C[C@@H](C(=O)N[C@@H](C1CCCCC1)C(=O)N2CCC[C@H]2C(=O)N[C@@H]3[C@@H](CC4=CC=CC=C34)OCC#CC#CCO[C@@H]5CC6=CC=CC=C6[C@@H]5NC(=O)[C@@H]7CCCN7C(=O)[C@H](C8CCCCC8)NC(=O)[C@H](C)NC)NC [AZD5582] + Nc1ncn([C@H]2C[C@H](O)[C@@H](CO)O2)c(=O)n1 [Decitabine] (partner 2 µM)
Outline: as §1

Cell Line	relative viability (AZD5582 + Bortezomib; first compound 0.001581 µM)	relative viability (AZD5582 + Bortezomib; first compound 0.005 µM)	relative viability (AZD5582 + Bortezomib; first compound 0.01581 µM)	relative viability (AZD5582 + Bortezomib; first compound 0.05 µM)	relative viability ([1]; first compound 0.2 µM)	relative viability ([1]; first compound 0.6325 µM)	relative viability ([1]; first compound 2 µM)	relative viability ([1]; first compound 6.325 µM)	relative viability ([1]; first compound 20 µM)	relative viability (Temozolomide + Dasatinib; first compound 0.2 µM)	relative viability (Temozolomide + Dasatinib; first compound 0.6325 µM)	relative viability (Temozolomide + Dasatinib; first compound 2 µM)	relative viability (Temozolomide + Dasatinib; first compound 6.325 µM)	relative viability (Temozolomide + Dasatinib; first compound 20 µM)	relative viability (AZD5582 + Decitabine; first compound 0.001581 µM)	relative viability (AZD5582 + Decitabine; first compound 0.005 µM)	relative viability (AZD5582 + Decitabine; first compound 0.01581 µM)	relative viability (AZD5582 + Decitabine; first compound 0.05 µM)
201T	1.1	1.16	1.07	1.17	1.11	1.07	1.05	1.02	0.985	0.584	0.523	0.539	0.57	0.565	0.866	0.913	0.856	1.02
A549															0.214	0.271	0.211	0.263
A-427	0.92	0.954	0.938	0.891	0.699	0.803	0.799	0.618	0.394	0.736	0.669	0.762	0.525	0.356	0.496	0.582	0.573	0.53
ABC-1	0.282	0.275	0.291	0.261	0.507	0.439	0.788	0.551	0.553	0.621	0.558	0.607	0.49	0.586	1.06	1.08	0.931	1.36
BEN	0.786	0.87	0.911	0.579	0.323	0.323	0.462	0.233	0.228	0.285	0.356	0.31	0.257	0.263	0.699	0.668	0.683	0.62
CAL-12T	0.777	0.746	0.448	0.668	0.27	0.518	0.862	0.115	0.723	0.444	0.455	0.427	0.381	0.346				
COR-L23	0.942	1.02	1.07	1.09	0.639	0.669	0.737	0.696	0.612	0.635	0.516	0.542	0.461	0.6	0.476	0.441	0.445	0.481
COR-L 105	0.768	0.877	0.69	0.827	0.798	0.781	1.13	0.561	1.04	0.285	0.358	0.481	0.313	0.188	0.666	0.724	0.632	0.723
Calu-6	0.917	0.813	0.988	0.551														
ChaGo-K-1	0.988	0.985	0.93	0.982	0.679	0.625	0.785	0.557	0.556	0.605	0.603	0.781	0.552	0.579	0.545	0.579	0.509	0.597
EBC-1	0.434	0.39	0.528	0.389														
EKVX	1.02	1.02	0.934	0.575	0.364	0.873	0.888	0.829	0.714		0.575	0.55	0.782	0.352	0.351	0.377	0.294	0.385
EMC-BAC-2	1.01	1.04	1.02	0.354	1.11	1.18	1.21	1.12	1.23	0.336	0.368	0.368	0.316	0.325	0.892	0.97	0.887	0.841
EPLC-272H	0.833	0.396	0.87	0.277	0.234	0.279	0.304	0.707	0.446	0.368	0.411	0.413	0.337	0.267	0.148		0.385	0.0824
H3255	0.823	0.879	0.385	0.552		0.991	0.946	0.868	0.28		0.406	0.283	0.263	0.202	0.556	0.626	0.572	0.553
HARA	1.09	1.11	1.06	1.07	0.681	0.801	0.835	0.788	0.697	0.238	0.301	0.309	0.29	0.23	0.595	0.53	0.565	0.49
HCC-15	0.921	1.01	0.864	0.975	0.347	0.356	0.314	0.218	0.271	0.74	0.699	0.625	0.627	0.642	0.534	0.559	0.602	0.418
HCC-44	0.711	0.722	0.918	0.553	0.634	1.05	1.12	0.897	0.966						0.828	0.786	0.845	0.681
HCC-78	0.367	0.604	0.421	0.479						0.363	0.456	0.418	0.391	0.365	0.786	0.703	0.688	0.585

Cell Line	relative viability (AZD5582 + Bortezomib; first compound 0.001581 µM)	relative viability (AZD5582 + Bortezomib; first compound 0.005 µM)	relative viability (AZD5582 + Bortezomib; first compound 0.01581 µM)	relative viability (AZD5582 + Bortezomib; first compound 0.05 µM)	relative viability ([1]; first compound 0.2 µM)	relative viability ([1]; first compound 0.6325 µM)	relative viability ([1]; first compound 2 µM)	relative viability ([1]; first compound 6.325 µM)	relative viability ([1]; first compound 20 µM)	relative viability (Temozolomide + Dasatinib; first compound 0.2 µM)	relative viability (Temozolomide + Dasatinib; first compound 0.6325 µM)	relative viability (Temozolomide + Dasatinib; first compound 2 µM)	relative viability (Temozolomide + Dasatinib; first compound 6.325 µM)	relative viability (Temozolomide + Dasatinib; first compound 20 µM)	relative viability (AZD5582 + Decitabine; first compound 0.001581 µM)	relative viability (AZD5582 + Decitabine; first compound 0.005 µM)	relative viability (AZD5582 + Decitabine; first compound 0.01581 µM)	relative viability (AZD5582 + Decitabine; first compound 0.05 µM)
HCC-366	0.982	1.1	1.01	1.19						0.661	0.688	0.655	0.682	0.652	0.346	0.37	0.386	0.395
HCC-827	0.974	1.05	0.901	1.07	0.52	0.67	0.638	0.382	0.191	0.256	0.343	0.299	0.326	0.149	0.281	0.292	0.348	0.308
HOP-62	0.652	0.527	0.691	0.566	0.839	0.88	0.988	0.93	0.968	0.744	0.759	0.73	0.609	0.711	0.213	0.209	0.247	0.213
IA-LM	0.704	0.679	0.829	0.74														
LK-2					0.177	0.186	0.199	0.163	0.187	0.266	0.323	0.384	0.246	0.27	0.257	0.277	0.307	0.326
NCI-H358						0.271	0.485	0.347	0.404	0.13	0.151	0.17	0.142	0.135	0.199	0.241	0.245	0.215
NCI-H522					0.877	1.21	0.981	1.18	1.05	0.877	0.729	0.932	0.703	0.935	0.624	0.711	0.624	0.641
NCI-H1299	1.01	1.08	1.04	0.99														
NCI-H1395					0.51	0.67	0.703	0.65	0.6	0.429	0.393	0.491	0.402	0.392	0.694	0.743		0.782
NCI-H1563	0.765	0.887	0.788	1.25	0.472	0.499	0.525	0.533	0.487	0.454	0.481	0.453	0.366	0.447				
NCI-H1623						0.488	0.416	0.361	0.519		0.555	0.455	0.474	0.355				
NCI-H1648															0.502	0.528		0.466
NCI-H1793						0.151	0.309	0.189	0.186		0.407	0.378	0.28	0.352	0.487	0.607	0.473	0.53
NCI-H1944					0.59	0.829	0.907	0.729	0.711	0.218	0.196	0.223	0.213	0.192	0.432	0.485	0.494	0.457
NCI-H2170						0.7	0.749	0.478	0.359		0.677	0.655	0.503	0.259	0.489	0.474	0.478	0.504
NCI-H2228	0.857	1.34	1.36	0.439	0.125	0.162	0.104	0.149	0.137	0.577	0.637	0.516	0.463	0.44				
NCI-H2342					0.633	0.674	0.706	0.629	0.637	0.311	0.301	0.304	0.312	0.297	0.692	0.835	0.698	0.702
SK-MES-1					0.939	0.823	0.777	0.831	0.772	0.289	0.34	0.412	0.374	0.228	0.336	0.365	0.416	0.347
SW 900					0.163	0.175	0.169	0.131	0.149	0.644	0.561	0.381	0.541	0.553	0.372	0.364	0.38	0.246
